From US12545686B2, “Polymorphic forms of (s)-n-(3-bromo-2-fluorophenyl)-7-((4-methylpiperazin-1-yl)methyl)-7,8-dihydro-[1,4]dioxino[2,3-g]quinazolin-4-amine as EGFR inhibitors” (ERASCA, INC., priority 2021, dated 2026) come the findings set out here.

The solubility is how much of the substance goes into solution per volume.

Format in all cases: physicochemical
The nature of series [1]: Dynamic vapor sorption (DVS), with PXRD and TG-FTIR of the post-DVS sample. The conditions noted are these: for Solid form of the sample recovered post-DVS (PXRD): PXRD after DVS; for Water content of the post-DVS sample by TG-FTIR: sample recovered at end of DVS test; for Total water content change during the DVS cycles: wet sample used. As for the experimental part:
Dynamic vapor sorption: DVS measurements were performed with an SPS11-100n “Sorptions Prifsystem” from ProUmid (formerly “Projekt Messtechnik”), August-Nagel-Str. 23, 89079 Ulm (Germany). About 5-20 mg of sample was put into an aluminum sample pan. Humidity change rates of 5% per hour were used. The applied measurement program is visualized in the figure (blue trace). The presentations showing the effective water content are corrected.
The sample was placed on an aluminum or platinum holder on top of a microbalance and allowed to equilibrate at 50% RH before starting the pre-defined humidity programs. The measurement program is visualized in the figures of the report.
Classification of Hygroscopicity: The hygroscopicity was classified based on the mass gain at 85% RH relative to the initial mass as follows: deliquescent (sufficient water adsorbed to form a liquid), very hygroscopic (mass increase of ≥15%), hygroscopic (mass increase <15% but ≥2%), slightly hygroscopic (mass increase <2% but ≥0.2%), or non-hygroscopic (mass increase <0.2%).

A short description of series [2]: Physical form stability on drying (PXRD). How it is done:
PowderX-ray diffraction: Powder X-ray diffraction was carried out with a Stoe Stadi P diffractometer equipped with a Mythen1K detector operating with Cu—Kα1 radiation. The measurements with this instrument were performed in transmission at a tube voltage of 40 kV and 40 mA tube power. A curved Ge monochromator allows testing with Cu—Kα1 radiation. The following parameters were set: 0.02° 20 step size, 12 s step time, 1.5-50.5° 20 scanning range, and 1° 20 detector step (detector mode in step scan). For a typical sample preparation about 10 mg of sample was placed between two acetate foils and mounted into a Stoe transmission sample holder. The sample was rotated during the measurement. All sample preparation and measurement was done in an ambient air atmosphere.
The first crystalline form of Compound (I) was designated as Form A and was obtained from a suspension equilibration experiment of the amorphous form in an isopropanol—water mixture. Form A was characterized by PXRD, TG-FTIR, H-NMR and DVS.
The PXRD pattern of Form A is depicted in FIG. 1. It should be noted that this sample was examined by PXRD before drying and that the undried sample is highly crystalline in nature. […] A TG-FTIR of the crystal Form A sample without much drying indicated a large mass loss of 36.6% that is attributable to water and isopropanol. Given the large mass loss it was concluded that drying was insufficient, and therefore the sample was further dried under vacuum at ambient temperature for about 23 hours and a new TG-FTIR was recorded.
As with Form A, Form B was examined by PXRD before drying was indicated to be highly crystalline in nature. […] A TG-FTIR was carried out for Form B without further drying and the thermogram indicated a large mass loss of 36.5% that is attributable to water; however no alcohol was detected. Given the large mass loss it was concluded that drying was insufficient, and the sample was subjected to further vacuum drying at ambient temperature for ten minutes and a new TG-FTIR was recorded. The new TG-FTIR thermogram indicated a water content of about 4.6%.

The nature of series [3]: Approximate solubility by incremental addition of solvent. The conditions noted are these: for solubility: thermodynamic from solid. How it is done:
Solubility: Approximate solubilities were determined by incremental addition of solvent to about 10 mg the compound. If the substance was not dissolved by addition of a total of at least 10 ml solvent, the solubility is indicated as <1 mg/ml. Due to the experimental error inherent in this method, the solubility values are intended to be regarded as rough estimates and are to be used solely for the design of crystallization experiments.
Approximate solubilities were determined for amorphous Compound (I) at room temperature. These values were obtained by addition of small aliquots of solvent to small amounts of solid to achieve dissolution by stirring or agitation for a short period of time. […] Ratios for solvent mixtures correspond to volume ratios.
Initially the tests were carried out with the amorphous form Compound (I) and later on, after stable crystalline Form D (Example 7 below) was discovered, some of the tests were repeated with the crystalline form. […] Antisolvents are water, heptane, and TBME. […] Based on available data and further experiments diisopropylether, cyclohexane and methylcyclohexane can also be used as antisolvents.

Series [4] in a line: Solubility tests in potential process solvent mixtures. The conditions noted are these: thermodynamic from solid.
A short description of a further series: Aqueous solubility. Conditions: water, thermodynamic from solid, equilibration time 24 hours, pH 8.49.
Series [5] in a line: pH dependent solubility tests in 0.1 M HCl, citrate buffer and USP phosphate buffers. The conditions noted are these: aqueous buffer, thermodynamic from solid. How it is done: pH dependent solubility tests were conducted in 0.1 M HCl, in citrate buffer, and in USP phosphate buffers with nominal pH values of 6.8 and 7.4. Solubility tests at pH values below 5 failed because all compounds dissolved during the equilibration phase.

In brackets after ≈: the same amount, converted by molar mass.

For `CN1CCN(C[C@H]2COc3cc4ncnc(Nc5cccc(Br)c5F)c4cc3O2)CC1` [Form B, (S)—N-(3-bromo-2-fluorophenyl)-7-((4-methylpiperazin-1-yl)methyl)-7,8-dihydro-[1,4]dioxino[2,3-g]quinazolin-4-amine], in series [1], the “Solid form of the sample recovered post-DVS (PXRD)” value (“Solid form … (PXRD)” for short) was “crystallinity was lost”, the “Water uptake above 50% r.h. in DVS” value is on record as “just small amounts of water”, the “Water content of the post-DVS sample by TG-FTIR” value is listed as “about 6.4%” and the “Total water content change during the DVS cycles” value was “about 13%”. In series [2], the Physical form stability entry is listed as “poor physical form stability”. For the same molecule, the “Solid form after further drying” value in series [2] (further drying beyond ten minutes vacuum) is recorded as “completely amorphous material”. The “PXRD of the dried sample” value in series [2] (vacuum drying at ambient temperature for ten minutes) is listed as “dramatic loss of crystallinity”.
`CN1CCN(C[C@H]2COc3cc4ncnc(Nc5cccc(Br)c5F)c4cc3O2)CC1` [Form C, (S)—N-(3-bromo-2-fluorophenyl)-7-((4-methylpiperazin-1-yl)methyl)-7,8-dihydro-[1,4]dioxino[2,3-g]quinazolin-4-amine]: in series [1], the “Solid form … (PXRD)” value is “crystallinity was lost almost completely”, the “Water uptake above 50% r.h. in DVS” value is reported as “just small amounts of water”, the “Water content of the post-DVS sample by TG-FTIR” value is “about 5.9%” and the “Total water content change during the DVS cycles” value is listed as “about 14%”. Besides, the “Water content at the end of the DVS test” value in series [1] (end of test) was “about 5.9%”. In addition, the Physical form stability entry in series [2] is on record as “poor physical form stability”.
Consider `CN1CCN(C[C@H]2COc3cc4ncnc(Nc5cccc(Br)c5F)c4cc3O2)CC1` [Form A, (S)—N-(3-bromo-2-fluorophenyl)-7-((4-methylpiperazin-1-yl)methyl)-7,8-dihydro-[1,4]dioxino[2,3-g]quinazolin-4-amine], for which, in series [1], the “Solid form … (PXRD)” value is given as “Form A was retained” and the “Water uptake above 50% r.h. in DVS” value is recorded as “just small amounts of water”. Further, in series [1] (below 50% r.h.), the “Water lost below 50% r.h. during the DVS cycles” value was “about 8%”. Further, in series [1] (from 0% to 95% r.h., roughly three waters per Compound (I)), the “Water content change over the whole range of relative humidity” value is roughly 10%. Also, the Physical form stability entry in series [2] is “poor physical form stability”. In series [2] (dried under vacuum at ambient temperature for about 23 hours), the “PXRD of the dried sample” value was “essentially amorphous material”. Further, in series [2] (drying of highly crystalline, solvent-rich samples), the “Effect of drying on crystallinity” value was “significant loss of crystallinity”.
For the molecule `CN1CCN(C[C@H]2COc3cc4ncnc(Nc5cccc(Br)c5F)c4cc3O2)CC1` [Form D, (S)—N-(3-bromo-2-fluorophenyl)-7-((4-methylpiperazin-1-yl)methyl)-7,8-dihydro-[1,4]dioxino[2,3-g]quinazolin-4-amine], the solubility is greater than 200000 µg/mL in series [3] (1-methoxy-2-propanol, organic solvent or mixture, Propanol, 1-methoxy-2-, room temperature); greater than 20000 µg/mL in series [3] (2-propanol/heptane (1/1, v/v), organic solvent or mixture, Propanol, 2-/heptane 1/1, room temperature); roughly 7000 µg/mL (≈ 14.3 mM) in series [3] (acetone/heptane (1/3, v/v), organic solvent or mixture, Acetone/heptane 1/3, room temperature); greater than 107000 µg/mL in series [3] (ethanol/n-heptane (1/3, v/v), organic solvent or mixture, Ethanol/n-heptane (1/3), room temperature); roughly 3000 µg/mL (≈ 6.14 mM) in series [3] (ethyl acetate/n-heptane (1/3, v/v), organic solvent or mixture, Ethyl acetate/n-heptane (1/3), room temperature); greater than 136000 µg/mL in series [3] (isobutyl alcohol, organic solvent or mixture, Isobutylalcohol, room temperature). Moreover, the solubility in series [3] (isopropyl acetate, organic solvent or mixture, room temperature) was 90000 to 180000 µg/mL (≈ 184 to 369 mM); in series [3] (water, room temperature) it was less than 1000 µg/mL; in series [4] (25 °C, aqueous with cosolvent or surfactant or cyclodextrin, Isopropanol - water 1:1), 20300 µg/mL (≈ 41.6 mM); in series [4] (25 °C, aqueous with cosolvent or surfactant or cyclodextrin, Isopropanol - water 1:3), 1200 µg/mL (≈ 2.46 mM); in series [4] (25 °C, organic solvent or mixture, Ethyl acetate - heptane 1:1), 23100 µg/mL (≈ 47.3 mM); in series [4] (ethyl acetate - heptane 1:3, 25 °C, organic solvent or mixture), 6300 µg/mL (≈ 12.9 mM). For the same molecule, the solubility was 210 µg/mL (≈ 0.43 mM) in series [5] (USP phosphate buffer (nominal pH 6.8), effective pH 6.97); 84 µg/mL (≈ 0.172 mM) in series [5] (USP phosphate buffer (nominal pH 7.4), effective pH 7.47); 13100 µg/mL (≈ 26.8 mM) in series [5] (citrate buffer, effective pH 5.28); 6600 µg/mL (≈ 13.5 mM) in series [5] (citrate buffer, effective pH 6.11). Also, the “Solubility compared with the amorphous form (in words)” value in series [3] (in acetonitrile and ethyl acetate) was “substantially lower”. This molecule also registered a solubility at 24 h in the series “Aqueous solubility” of 66 µg/mL (≈ 0.135 mM). The “Water uptake in DVS” value in series [1] (at 95% relative humidity) was “up to 0.8%”. Further, the “Water release in DVS” value in series [1] (humidity scanned back to 0% r.h.) is on record as “lost all its water”.
